# Reference: patent publication US7314959B2, “Amino thiol compounds and compositions for use in conjunction with cancer therapy” (Wisconsin Alumni Research Foundation, priority 2003, dated 2008)
# “Also recorded” adds a separate entry of the source.
# Tests used:
# [1] = test system: B16 melanoma tumor xenografts; test: Effect of topical drug on killing of tumor xenograft by systemic Cytoxan; format: in vivo, mouse; conditions: topical dose 5-times higher than standard regimen; Cytoxan 200 ug/gm b.w. ip
# p21 in human fibroblasts = test: p21 western blot in human skin fibroblasts; format: cell-based; conditions: IC70 concentration of PrC-210 (4100 μM); cysteamine 600 μM; 30 hour exposure
# Procedure: (§1) Methods (Cell cycle and p21 western): The cell culture experiments were done using primary, human skin fibroblasts, one strain of which (BJ cells) was obtained from ATCC (American Type Culture Collection). […] For flow cytometry and p21 experiments, cells were plated at 0.5×10^6 cells/150 mm plate, and 24 hr later, drug molecules (4100 μM PrC-210, 600 μM cysteamine, 205 μM cysteamine analog, 0.4 μg/ml colcemid) were added to medium. […] (Cancer Research. 61(21):7754-62, 2001). As per the cited reference, cells were fixed, treated with RNAse, and stained with propidium iodide for flow cytometry, or cells were extracted, proteins electrophoresed, and probed with anti-p21 antibody (#SXM-30) for western blot analysis.
# [2] = test system: supercoiled pUC19 plasmid; test: Hydroxyl radical scavenging, plasmid DNA protection; format: biochemical; conditions: 0-70 mM, pH 6.5; even the lowest concentration tested; UV 2.5 min
# Procedure: Method: 0.3 μg pUC19 plasmid was added to a 16 μl incubation containing Tris-EDTA buffer, then either PrC-210 (0-70 mM, pH 6.5) or buffer were added to the incubation. The polypropylene microtubes were then sealed and irradiated for 2.5 min at a distance of 80 cm from a UV lamp. Samples were then applied to 1% agarose gels and electrophoresed using methods known in the art.
# [3] = test system: radiation-induced dermatitis on backs of rats; test: Radiation-induced dermatitis in rat skin model; format: in vivo
# Procedure: To determine efficacy of chemoprotective polyamines in preventing radiation-induced dermatitis, adult rats were topically treated with the compounds before and after radiation treatment. Rats were exposed to medically relevant levels of radiation that could induce clinical radiation dermatitis. Sprague Dawley rats (Harlan Spraque Dawley) at 4-6 weeks-old were anesthetized with sodium pentobarbital at 40 mg/kg body weight (Sigma, St. Louis, Mo.) prior to radiation exposure. A defined area (1.5×2 cm) on the backs of rats was irradiated using a Mark I, Model 30, Cs 137 irradiator (J. L. Sheppard & Associates). Before topical drug treatment or irradiation, the backs of the rats were clipped using an Oster clipper at the closest setting. The rest of the body was protected from radiation exposure using a lead shield (2.5 cm thick). A dose response study was initially performed to reproduce relevant dermatitis that matched the Grade (I-IV) scale used to score the severity of radiation-induced dermatitis in humans. The severity of the dermatitis was scored 12-13 days post-irradiation at the peak of the dermal inflammation. […] Radiation dermatitis of Grade II-III was considered most clinically relevant, so a radiation dose of 8.7 Gy was typically used in the rats. The clipped back region on the rats was treated topically with aminothiol in delivery vehicle four times in the two hours immediately preceding irradiation (at −2 hr, −1 hr, −30 min, and −10 min; irradiation was at 0 min
# The polyamines or amino thiols were prepared in a delivery vehicle, consisting of ethanol:propylene glycol:water, ranging from 0:95:5 to 50:30:20 depending upon the solubility characteristics of the topical molecule, and the degree of dermal penetration desired. A vehicle composed of an emulsion formed by sonication of ‘nonionic liposomes’ and isopropyl myristate was also used (Jayaraman, S. et al., J. Pharm. Sci. 85:1082-1084, 1996). In a commonly used protocol, 220 μl of topical drug/vehicle was applied to an area ˜2 cm×3 cm on the back in the 2 hr just prior to irradiation. Rats treated with only the delivery vehicle served as controls. Twelve to thirteen days post-radiation, the rats were evaluated for dermatitis within the irradiated area. In early studies, a modified scoring scale described by Masuda K. et al., Int. J. Radiation Oncol. Biol. Phys: 12, 1645 (1986) was used, and in later studies, including those described here, a simplified scoring system was used in which the percentage of the irradiated, rectangular field covered with scrab material was estimated between 0 and 100% to provide scores on a scale between 0 and 100.
# This example relates to the use of a rat skin model to evaluate the efficacy of two amino thiol compounds in preventing radiation-induced dermatitis. To test whether topically-applied aminothiols could prevent the radiodermatitis caused by external beam radiotherapy, the rodent model described in Example 3 was slightly modified. Briefly, the radiodermatitis model involved: • i) shaving the backs of 6-7 week old rats or mice; • ii) applying four topical doses of aminothiol in a delivery vehicle composed of ethanol:propylene glycol (PG):water in the 2 hr prior to irradiation; • iii) irradiating a small, 3 cm^2 (1.5×2 cm) area on the animal's back (through a window in a lead plate) with 8.7 Gy of γ radiation from a Cs^137 source; and • iv) scoring the severity of the dermatitis 12-13 days later, at the peak of the inflammatory skin reaction. Radiodermatitis severity was scored by estimating the percentage of the irradiated field that was covered by scrab material.
# Methods: Treatments were applied as described in Example 6.
# [4] = test system: primary, human skin fibroblasts; test: Cell cycle block in human skin fibroblasts (flow cytometry); format: cell-based
# Procedure: as §1
smiles,measurement,setting,value
"CNCC(CS)CNC [PrC-210, 3-methylamino-2-methylaminomethyl-propane-1-thiol]",effect upon killing of tumor xenografts by systemic Cytoxan chemotherapy,[1],no discernible effect
same,p21 expression,p21 in human fibroblasts,"induces expression of the cell cycle regulator, p21; also recorded: marked induction of p21 expression"
same,protection of supercoiled DNA from OH radical damage,[2],completely prevented damage to supercoiled DNA
same,dose for complete protection in 0:95:5 vehicle relative to 50:30:20 vehicle,[3]; 0:95:5 versus 50:30:20 ethanol:PG:water,about 10 times
same,Dermatitis Score (% of irradiated field free of scab material),"[3]; 370 mM, vehicle 0:95:5, Experiment 440-443",<50%
same,Dermatitis Score (% of irradiated field free of scab material),"[3]; 370 mM, vehicle 50:30:20, Experiment 574-577",100 ± 0%
same,Dermatitis Score (% of irradiated field free of scab material),"[3]; 370 mM, vehicle 50:30:20, Experiment 643-646",98 ± 3%
same,Dermatitis Score (% of irradiated field free of scab material),"[3]; 740 mM, vehicle 0:95:5 ethanol:prop. glycol:water, Experiment 440-443",68%
same,Dermatitis Score (% of irradiated field free of scab material),"[3]; 740 mM, vehicle 50:30:20, Experiment 626-629",96 ± 3%
same,Dermatitis Score (% of irradiated field free of scab material),"[3]; 740 mM, vehicle 50:30:20, Experiment 643-646",96 ± 4%
same,Dermatitis Score (% of irradiated field free of scab material),"[3]; 900 mM PrC-210, vehicle 0:95:5, cage 440, 8.7 Gy",68 ± 10%
same,Dermatitis Score (% of irradiated field free of scab material),"[3]; 1200 mM PrC-210, vehicle 0:95:5, cage 441",95 ± 5%
same,concentration conferring complete protection against radiation-induced dermatitis,[3]; 95:5 PG:water vehicle,1200 to 1500 mM
same,concentration of topical aminothiol alone conferring complete protection against radiodermatitis,"[3]; aminothiol alone, without epinephrine, 8.7 Gy",~1200 mM
same,dose required for complete protection (100% Clear Skin) against radiodermatitis,[3]; vehicle 0:95:5 ethanol:PG:water,~24 mg/cm skin
same,applied dose conferring complete protection against radiation-induced dermatitis,[3]; vehicle 50:30:20 ethanol:PG:water,2.8 mg/cm^2 skin
same,concentration conferring complete protection against radiation-induced dermatitis,"[3]; vehicle 50:30:20 ethanol:PG:water, total applied volume 105 ul",370 mM
same,time to reversion to normal cell division after wash-out,[4]; change of cell culture medium,≤ 48 h
same,cell cycle block (phase),[4]; log-phase human fibroblast cultures,in the G1 phase of the cell cycle; also recorded: G1-specific cell cycle block; also recorded: reversible G1 cell cycle block
same,reversibility of cell cycle block,[4]; upon washout or removal of the drug,reversible
